Experimental data taken from ChEMBL document CHEMBL1201862, “PubChem BioAssay data set” (2004).
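Test compounds were applied to cells in 96-well plates for 48 hours at 5 doses. GI50: concentration for 50% inhibition of growth.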 The source made the active and inactive calls. Rule as the data show it: active = GI50 up to about 1.1 µM and inactive = higher. Non-standard residues stand in square brackets, D forms with d. Residues, ends and D or L forms follow the SMILES beside them. ΔPro = O=C(O)[CH]1C=CCN1

Tests used:
Assay in all cases: DTP human tumour cell line panel, 48 h
NCI-H23 = test system: NCI-H23
EKVX = test system: EKVX
HCT-15 = test system: HCT-15
M14 = test system: M14
SW-620 = test system: SW-620
MCF7 = test system: MCF7
CAKI-1 = test system: CAKI-1
MDA-N = test system: MDA-N
SF-539 = test system: SF-539
U-251 = test system: U-251
HOP-92 = test system: HOP-92
K562 = test system: K562
HCC 2998 = test system: HCC 2998
SR = test system: SR
COLO 205 = test system: COLO 205
BT-549 = test system: BT-549
OVCAR-3 = test system: OVCAR-3
KM12 = test system: KM12
TK-10 = test system: TK-10
DLD-1 = test system: DLD-1

| SMILES | GI50 (NCI-H23) | GI50 (EKVX) | GI50 (HCT-15) [µM] | GI50 (M14) | GI50 (SW-620) | GI50 (MCF7) | GI50 (CAKI-1) | GI50 (MDA-N) | GI50 (SF-539) | GI50 (U-251) | GI50 (HOP-92) | GI50 (K562) | GI50 (HCC 2998) | GI50 (SR) | GI50 (COLO 205) | GI50 (BT-549) | GI50 (OVCAR-3) | GI50 (KM12) | GI50 (TK-10) | GI50 (DLD-1) |
| --- | --- | --- | --- | --- | --- | --- | --- | --- | --- | --- | --- | --- | --- | --- | --- | --- | --- | --- | --- | --- |
| O=C(Cc1ccccc1)NNc1nc(NNC(=O)c2ccncc2)nc(Nc2ccc([N+](=O)[O-])cc2)n1 | 6.79 µM (inactive) | 9.46 µM (inactive) | 6.22 | > 10 µM (inactive) | > 10 µM (inactive) | > 10 µM (inactive) | > 10 µM (inactive) | 8.59 µM (inactive) | > 10 µM (inactive) | > 10 µM (inactive) | > 10 µM (inactive) | 6.19 µM (inactive) | > 10 µM (inactive) | > 10 µM (inactive) | > 10 µM (inactive) | 9.51 µM (inactive) | > 10 µM (inactive) | > 10 µM (inactive) | > 10 µM (inactive) |  |
| C=C(Br)C(C)(Br)CCC(Br)C(C)(C)Br (stereo not given) | 36.4 µM (inactive) |  | 34.8 | 23.7 µM (inactive) | 28.4 µM (inactive) |  | > 100 µM (inactive) |  | 19.3 µM (inactive) | 17.1 µM (inactive) | 18.6 µM (inactive) | 21.4 µM (inactive) |  | 13.4 µM (inactive) | 19.3 µM (inactive) |  |  | 40.1 µM (inactive) | 46.3 µM (inactive) | 37 µM (inactive) |
| O=C1/C(=C\c2ccccc2)c2ccccc2N1/N=C\c1ccccc1 | > 100 µM (inactive) | 23.2 µM (inactive) | 43.9 | > 100 µM (inactive) | 59 µM (inactive) |  | > 100 µM (inactive) |  | > 100 µM (inactive) | > 100 µM (inactive) | > 100 µM (inactive) | 42.7 µM (inactive) | 50.4 µM (inactive) |  | > 100 µM (inactive) |  | 91.8 µM (inactive) | 49.1 µM (inactive) | > 100 µM (inactive) | 59 µM (inactive) |
| O=C1CC(Cc2n[nH]c3c2CCCC3)CC(=O)N1 | > 100 µM (inactive) | > 100 µM (inactive) | > 100 | > 100 µM (inactive) | > 100 µM (inactive) | > 100 µM (inactive) | > 100 µM (inactive) | > 100 µM (inactive) | > 100 µM (inactive) | > 100 µM (inactive) | > 100 µM (inactive) | > 100 µM (inactive) | > 100 µM (inactive) | > 100 µM (inactive) | > 100 µM (inactive) | > 100 µM (inactive) | > 100 µM (inactive) | > 100 µM (inactive) | > 100 µM (inactive) |  |
| C[N+](C)(C)CC(=O)N/N=C(/Cc1nc2ccc(Cl)cc2nc1O)C1=NS(=O)(=O)c2cc(S(N)(=O)=O)c(Cl)cc2N1 | > 100 µM (inactive) | 6.75 µM (inactive) |  |  | > 100 µM (inactive) |  |  |  | > 100 µM (inactive) |  |  | > 100 µM (inactive) | > 100 µM (inactive) | > 100 µM (inactive) | > 100 µM (inactive) |  | > 100 µM (inactive) | > 100 µM (inactive) | > 100 µM (inactive) | > 100 µM (inactive) |
| COc1ccccc1/C=C(\NC(=O)c1ccccc1)c1nc2ccc(Cl)cc2[nH]1 | 22.2 µM (inactive) | 29.5 µM (inactive) | 30.3 | 34.9 µM (inactive) | 29.9 µM (inactive) |  | 21.4 µM (inactive) |  | 56.2 µM (inactive) | 30.5 µM (inactive) | 22.7 µM (inactive) | 27.4 µM (inactive) |  |  | 19.1 µM (inactive) |  | 18.5 µM (inactive) | 23.7 µM (inactive) | 29.2 µM (inactive) | 23.8 µM (inactive) |
| O=C1C(Cl)=C(N2CCC[C@@H]2CO)C(=O)c2c(O)ccc(O)c21 | 1.64 µM (inactive) | 1.87 µM (inactive) | 1.87 | 1.67 µM (inactive) | 1.4 µM (inactive) | 1.16 µM (inactive) | 1.58 µM (inactive) | 1.54 µM (inactive) | 1.92 µM (inactive) | 1.83 µM (inactive) | 1.66 µM (inactive) | 0.347 µM (active) | 2.02 µM (inactive) | 2.18 µM (inactive) | 1.55 µM (inactive) | 1.9 µM (inactive) | 1.67 µM (inactive) | 1.75 µM (inactive) | 1.88 µM (inactive) |  |
| CC1(C)COC(C23C4C5C2C2C3C4C52I)=N1 (stereo not given) | > 100 µM (inactive) | > 100 µM (inactive) | > 100 | > 100 µM (inactive) | > 100 µM (inactive) |  | 50.4 µM (inactive) |  | > 100 µM (inactive) | > 100 µM (inactive) | > 100 µM (inactive) | > 100 µM (inactive) | > 100 µM (inactive) |  | > 100 µM (inactive) |  | > 100 µM (inactive) |  | > 100 µM (inactive) | > 100 µM (inactive) |
| COc1ccc(OC)c(CSc2ccc(OC)c(OC)c2)c1 | 82 µM (inactive) | 62.4 µM (inactive) | > 73.8 | > 100 µM (inactive) | > 100 µM (inactive) | > 100 µM (inactive) | > 100 µM (inactive) | > 77.6 µM (inactive) | > 100 µM (inactive) | > 94.2 µM (inactive) | > 52.2 µM (inactive) | 74.8 µM (inactive) | 97.1 µM (inactive) | > 100 µM (inactive) | > 100 µM (inactive) | > 85.1 µM (inactive) | > 63.5 µM (inactive) | > 100 µM (inactive) | > 100 µM (inactive) |  |
| CC1CCC(=O)C(C(=O)CC2CC(=O)NC(=O)C2)C1 (stereo not given) | > 100 µM (inactive) | > 100 µM (inactive) | > 100 | > 100 µM (inactive) | > 100 µM (inactive) | > 100 µM (inactive) | > 100 µM (inactive) | > 100 µM (inactive) | > 100 µM (inactive) | > 100 µM (inactive) | > 100 µM (inactive) | > 100 µM (inactive) | > 100 µM (inactive) | > 100 µM (inactive) | > 100 µM (inactive) | > 100 µM (inactive) | > 100 µM (inactive) | > 100 µM (inactive) | > 100 µM (inactive) |  |
| COc1ccc2cc(/C=N\NC(=O)Nc3ccc([N+](=O)[O-])cc3)ccc2c1 | 11.4 µM (inactive) | 14 µM (inactive) | 15.1 | 22.6 µM (inactive) | 17.5 µM (inactive) | 14.4 µM (inactive) | 13.5 µM (inactive) | 13 µM (inactive) | 8.24 µM (inactive) | 13.6 µM (inactive) | 16 µM (inactive) | 14.8 µM (inactive) | 14.2 µM (inactive) | > 10 µM (inactive) | 13.1 µM (inactive) | 12.7 µM (inactive) | 18.4 µM (inactive) | 11.3 µM (inactive) | 7.96 µM (inactive) |  |
| COC(=O)NC(Nc1ccc(Cl)cc1Cl)(C(F)(F)F)C(F)(F)F | > 100 µM (inactive) | 48.9 µM (inactive) | 4.38 | 52.4 µM (inactive) | 30.9 µM (inactive) | > 100 µM (inactive) | 24.5 µM (inactive) | 34.7 µM (inactive) | 49 µM (inactive) | 54.1 µM (inactive) | 73.3 µM (inactive) | 2.85 µM (inactive) | 45.7 µM (inactive) | 5.31 µM (inactive) | 28.2 µM (inactive) | 17.1 µM (inactive) | 79.6 µM (inactive) | 14 µM (inactive) | 92.7 µM (inactive) |  |
| N#Cc1c(Cl)cccc1Oc1ccc(S(=O)(=O)N/C(=N\O)Nc2ccc(Cl)cc2)cc1 | 17.6 µM (inactive) | 15.5 µM (inactive) | 17.3 | 15.7 µM (inactive) | 17.6 µM (inactive) | 17.1 µM (inactive) | 15.5 µM (inactive) | 16.4 µM (inactive) | 17.7 µM (inactive) | 17 µM (inactive) | 11 µM (inactive) | 24.2 µM (inactive) | 14.7 µM (inactive) | 23.9 µM (inactive) | 18.2 µM (inactive) | 16.4 µM (inactive) | 15.8 µM (inactive) | 17.2 µM (inactive) | 16.6 µM (inactive) |  |
| COc1ccc2oc(-c3ccc(OC)c(OC)c3OC)cc(=O)c2c1 | 43.3 µM (inactive) | 33.1 µM (inactive) |  | 55.3 µM (inactive) | 65.2 µM (inactive) |  | 53 µM (inactive) |  | 31.2 µM (inactive) |  | 50.6 µM (inactive) | 40.6 µM (inactive) | 52.7 µM (inactive) |  | 52 µM (inactive) |  | 34.7 µM (inactive) |  | 36.3 µM (inactive) | 49.7 µM (inactive) |
| O=C(O)C1C=CCN1C(=O)C1C=CCN1C(=O)C1C=CCN1 (stereo not given) (H-[ΔPro]-[ΔPro]-[ΔPro]-OH; configuration not given here) | > 100 µM (inactive) | > 100 µM (inactive) | > 100 | > 100 µM (inactive) | > 100 µM (inactive) | > 100 µM (inactive) | > 100 µM (inactive) | > 100 µM (inactive) | > 100 µM (inactive) | > 100 µM (inactive) | > 100 µM (inactive) | > 100 µM (inactive) | > 100 µM (inactive) | > 100 µM (inactive) | > 100 µM (inactive) | > 100 µM (inactive) | > 100 µM (inactive) | > 100 µM (inactive) | 30.1 µM (inactive) |  |
| O=C(CCCCCCC(=O)Nc1cccnc1)NO [PYROXAMIDE] | 13 µM (inactive) | 47.5 µM (inactive) | 34.4 | 4.45 µM (inactive) | 3.4 µM (inactive) | 3.8 µM (inactive) | 16.6 µM (inactive) | 2.62 µM (inactive) | 3.09 µM (inactive) | 4.76 µM (inactive) | 12.8 µM (inactive) | 4.26 µM (inactive) | 4.61 µM (inactive) | > 100 µM (inactive) | 2.77 µM (inactive) | > 100 µM (inactive) | 2.86 µM (inactive) | 2.93 µM (inactive) | 7.11 µM (inactive) |  |
